The text below walks through data of patent publication US10662156B2, “Guanidine derivative and medical use thereof” (Toray Industries, Inc., priority 2016, dated 2020).

Structures can show the parent of a compound that is named as a salt.

Chain of recombinant GST fusion MALT1 (human MALT1) (Q9UDY8 whole entry, the tested form may be a part): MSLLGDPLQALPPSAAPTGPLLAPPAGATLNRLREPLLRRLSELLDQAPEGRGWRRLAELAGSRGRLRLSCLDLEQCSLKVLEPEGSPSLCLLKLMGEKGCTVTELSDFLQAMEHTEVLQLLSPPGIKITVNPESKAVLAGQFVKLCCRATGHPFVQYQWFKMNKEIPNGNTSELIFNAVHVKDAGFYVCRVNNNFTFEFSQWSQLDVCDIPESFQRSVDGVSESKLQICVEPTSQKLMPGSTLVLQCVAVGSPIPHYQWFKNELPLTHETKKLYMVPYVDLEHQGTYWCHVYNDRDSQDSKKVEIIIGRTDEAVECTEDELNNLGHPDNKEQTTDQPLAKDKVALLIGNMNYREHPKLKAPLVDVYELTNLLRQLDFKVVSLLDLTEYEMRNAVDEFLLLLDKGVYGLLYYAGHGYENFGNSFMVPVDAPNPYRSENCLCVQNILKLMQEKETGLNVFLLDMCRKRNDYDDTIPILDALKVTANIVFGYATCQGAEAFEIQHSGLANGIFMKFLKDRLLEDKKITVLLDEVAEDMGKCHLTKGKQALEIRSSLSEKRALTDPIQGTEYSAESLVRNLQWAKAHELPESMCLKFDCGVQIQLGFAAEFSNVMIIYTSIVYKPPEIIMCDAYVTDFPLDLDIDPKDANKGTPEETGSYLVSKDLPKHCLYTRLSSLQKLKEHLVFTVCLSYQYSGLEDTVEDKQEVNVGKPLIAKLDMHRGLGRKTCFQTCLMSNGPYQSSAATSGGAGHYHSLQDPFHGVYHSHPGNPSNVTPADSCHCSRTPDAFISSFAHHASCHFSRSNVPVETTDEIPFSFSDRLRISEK

The target of the test is recombinant GST fusion MALT1 (human MALT1) (Homo sapiens (Human), UniProt Q9UDY8). Briefly: Evaluation of inhibition of protease activity of MALT1 (cleavage of fluorescent peptide substrate Ac-LRSR-AMC). Type of test: biochemical. As to conditions: substrate Ac-LRSR-AMC 20 μmol/L, 30° C. for 80 minutes. Here is the method:
The guanidine derivative (I) or the pharmacologically acceptable salt thereof was evaluated for its inhibition of the protease activity of MALT1 in an in vitro experimental system in accordance with the method described in the literature (Cancer Cell, 2012, Vol. 22, p. 825-837). Specifically, the evaluation was conducted by measuring the degree of reduction in fluorescence value by the compound relative to elevation in fluorescence value resulting from the cleavage of a fluorescently labeled artificial peptide substrate by recombinant MALT1.
A) Preparation of Recombinant GST Fusion MALT1:
Full-length cDNA of human MALT1 gene (GenBank accession No: AB026118.1) amplified by PCR was inserted in flame to a SalI site located downstream of GST gene in a pGEX6P3 vector (GE Healthcare Japan Corp.) to prepare a vector (hereinafter, referred to as a pGEX6P3-MALT1 vector). Subsequently, E. coli for protein expression (BL21-RIL-codon plus-DE3, Agilent Technologies, Inc.) was transformed with the pGEX6P3-MALT1 vector and then analyzed by ampicillin resistance screening and colony PCR to obtain an E. coli strain expressing recombinant GST fusion MALT1. Protein expression was induced with isopropyl-(3-thiogalactopyranoside. After the expression induction, E. coli precipitates were recovered by centrifugation from the E. coli culture solution, and the E. coli precipitates were homogenized and then centrifuged to obtain a supernatant. The supernatant was purified using GSTrap FF column (GE Healthcare Japan Corp.) to obtain recombinant GST fusion MALT1.
B) Evaluation of Inhibition of Protease Activity of MALT1:
To 89 μL of an enzyme solution ([…] GST fusion MALT1, 50 mmol/L MES, 150 mmol/L NaCl, 10% sucrose, 0.1% CHAPS, 10 mmol/L dithiothreitol, and 1 mol/L tri-ammonium citrate) per specimen, 1 μL of a test compound (DMSO-diluted solution) of each concentration was added to prepare a mixed solution. The mixed solution was incubated at room temperature for 30 minutes, followed by the measurement of the fluorescence value of the mixed solution (fluorescence value of the first measurement) (Ex: 380 nm, Em: 460 nm; Envision (Perkin Elmer Inc.)). Next, 10 μL of 200 μmol/L substrate (Ac-LRSR-AMC, SM Biochemicals LLC) was added (final concentration: 20 μmol/L) to the mixed solution, and the mixture was reacted by incubation at 30° C. for 80 minutes, followed by the measurement of the fluorescence value of the reaction solution (fluorescence value of the second measurement) (Ex: 380 nm, Em: 460 nm; Envision (Perkin Elmer Inc.)). A “well nonsupplemented with the test compound (only DMSO was added), nonsupplemented with the enzyme and supplemented with the substrate”, and a “well nonsupplemented with the test compound (only DMSO was added), supplemented with the enzyme and supplemented with the substrate” were established.
The fluorescence value of the first measurement was defined as “F1”, and the fluorescence value of the second measurement was defined as “F2”. F2−F1 of the “well nonsupplemented with the test compound (only DMSO was added), nonsupplemented with the enzyme and supplemented with the substrate” was defined as “Fback”, F2−F1 of the “well nonsupplemented with the test compound (only DMSO was added), supplemented with the enzyme and supplemented with the substrate” was defined as “Fpositive”, and F2−F1 of the “well supplemented with the test compound, supplemented with the enzyme and supplemented with the substrate” was defined as “Fsample”. The rate of inhibition (%) of the protease activity of MALT1 by the test compound was calculated according to the following expression. Rate of inhibition (%)=100×(1−(Fsample−Fback)/(Fpositive−Fback))
Broadly, the IC50 is the concentration at which inhibition is half-maximal. Take `N/C(=N\C(=O)C1CCC(F)(F)CC1)NCc1cnc(-c2ccc(Cl)cc2)c(-c2ccc(Cl)cc2)c1` [Compound of Example 85, N-(amino(((5,6-bis(4-chlorophenyl)pyridin-3-yl)methyl)amino)methylene)-4,4-difluorocyclohexanecarboxamide]: the 50% inhibitory concentration (IC50) was 373 nM. In the case of `COc1cccc(S(=O)(=O)/N=C(\N)NCc2cnc(-c3ccc(Cl)cc3)c(-c3ccc(Cl)cc3)c2)c1` [Compound of Example 50, N-(amino(((5,6-bis(4-chlorophenyl)pyridin-3-yl)methyl)amino)methylene)-3-methoxybenzenesulfonamide], the IC50 came to 114 nM.

With `N/C(=N\S(=O)(=O)c1ccccc1)NCc1cnc(-c2cccc(Cl)c2)c(-c2ccc(Cl)cc2)c1` [Compound of Example 4, N-(amino(((6-(3-chlorophenyl)-5-(4-chlorophenyl)pyridin-3-yl)methyl)amino)methylene)benzenesulfonamide], the IC50 came out at 1400 nM. As to `N/C(=N\S(=O)(=O)c1ccsc1)NCc1cnc(-c2ccc(Cl)cc2)c(-c2ccc(Cl)cc2)c1` [Compound of Example 30, N-(amino(((5,6-bis(4-chlorophenyl)pyridin-3-yl)methyl)amino)methylene)thiophene-3-sulfonamide], the half-inhibitory concentration (IC50) came to 115 nM. In the case of `COCC(=O)/N=C(\N)NCc1cnc(-c2ccc(Cl)cc2)c(-c2ccc(Cl)cc2)c1` [Compound of Example 63, N-(amino(((5,6-bis(4-chlorophenyl)pyridin-3-yl)methyl)amino)methylene)-2-methoxyacetamide], the IC50 amounted to 640 nM. The same measure for `N/C(=N\S(=O)(=O)c1cccs1)NCc1cnc(-c2ccc(Cl)cc2)c(-c2ccc(Cl)cc2)c1` [Compound of Example 29, N-(amino(((5,6-bis(4-chlorophenyl)pyridin-3-yl)methyl)amino)methylene)thiophene-2-sulfonamide]: 100 nM. As for `CN(C)C(=O)/N=C(\N)NCc1cnc(-c2ccc(Cl)cc2)c(-c2ccc(Cl)cc2)c1` [Compound of Example 79, 3-(amino(((5,6-bis(4-chlorophenyl)pyridin-3-yl)methyl)amino)methylene)-1,1-dimethylurea], the IC50 is 1880 nM. For `N/C(=N\S(=O)(=O)c1ccccc1)NCc1cc(-c2ccc(Cl)cc2)c(-c2ccc(Cl)cc2)nc1O` [Compound of Example 91, N-(amino(((5,6-bis(4-chlorophenyl)-2-hydroxypyridin-3-yl)methyl)amino)methylene)benzenesulfonamide], the half-maximal inhibitory concentration (IC50) amounted to 112 nM. As for `N/C(=N\S(=O)(=O)c1ccccc1)NCc1cnc(-c2ccc(Cl)cc2)c(-c2ccccc2)c1` [Compound of Example 14, N-(amino(((6-(4-chlorophenyl)-5-phenylpyridin-3-yl)methyl)amino)methylene)benzenesulfonamide], the IC50 was 692 nM.

On to `CN/C(=N\S(=O)(=O)c1ccccc1)NCc1cnc(-c2ccc(Cl)cc2)c(-c2ccc(Cl)cc2)c1` [Compound of Example 40], for which the IC50 was 37 nM. Then `N/C(=N\S(=O)(=O)c1ccccc1)NCc1cnc(-c2ccc(OC(F)(F)F)cc2)c(-c2ccc(Cl)cc2)c1` [Compound of Example 10, N-(amino(((5-(4-chlorophenyl)-6-(4-(trifluoromethoxy)phenyl)pyridin-3-yl)methyl)amino)methylene)benzenesulfonamide], with 297 nM; and `NC(=O)/N=C(\N)NCc1cnc(-c2ccc(Cl)cc2)c(-c2ccc(Cl)cc2)c1` [Compound of Example 41, 1-(amino(((5,6-bis(4-chlorophenyl)pyridin-3-yl)methyl)amino)methylene)urea Hydrochloride], with 679 nM. For `Cc1ccc(-c2ncc(CN/C(N)=N/S(=O)(=O)c3ccccc3)cc2-c2ccc(Cl)cc2)c(F)c1` [Compound of Example 13, N-(amino(((5-(4-chlorophenyl)-6-(2-fluoro-4-methylphenyl)pyridin-3-yl)methyl)amino)methylene)benzenesulfonamide], the IC50 worked out at 237 nM. Turning to `N/C(=N\S(=O)(=O)C1CC1)NCc1cnc(-c2ccc(Cl)cc2)c(-c2ccc(Cl)cc2)c1` [Compound of Example 58, N-(amino(((5,6-bis(4-chlorophenyl)pyridin-3-yl)methyl)amino)methylene)cyclopropanesulfonamide], the IC50 is 743 nM. Consider `NC(=NS(=O)(=O)c1ccccc1)NCc1ccc(-c2ccc(Cl)cc2)c(-c2ccc(Cl)cc2)n1` [Compound of Example 45, N-(amino(((5,6-bis(4-chlorophenyl)pyridin-2-yl)methyl)amino)methylene)benzenesulfonamide Hydrochloride], for which the 50% inhibitory concentration (IC50) is 221 nM.

On to `N/C(=N\C(=O)c1ccccc1)NCc1cnc(-c2ccc(Cl)cc2)c(-c2ccc(Cl)cc2)c1` [Compound of Example 34, N-(amino(((5,6-bis(4-chlorophenyl)pyridin-3-yl)methyl)amino)methylene)benzamide], for which the concentration for half-maximal inhibition (IC50) was determined as 817 nM. Turning to `N/C(=N\S(=O)(=O)c1ccc(F)cc1)NCc1cnc(-c2ccc(Cl)cc2)c(-c2ccc(Cl)cc2)c1` [Compound of Example 28, N-(amino(((5,6-bis(4-chlorophenyl)pyridin-3-yl)methyl)amino)methylene)-4-fluorobenzenesulfonamide], the IC50 is 356 nM. For the compound `N/C(=N\S(=O)(=O)c1ccoc1)NCc1cnc(-c2ccc(Cl)cc2)c(-c2ccc(Cl)cc2)c1` [Compound of Example 32, N-(amino(((5,6-bis(4-chlorophenyl)pyridin-3-yl)methyl)amino)methylene)furan-3-sulfonamide], the IC50 worked out at 156 nM. Then `CCCCCC(=O)/N=C(\N)NCc1cnc(-c2ccc(Cl)cc2)c(-c2ccc(Cl)cc2)c1` [Compound of Example 65, N-(amino(((5,6-bis(4-chlorophenyl)pyridin-3-yl)methyl)amino)methylene)hexanamide], with 462 nM; and `N/C(=N\C(=O)c1ccccn1)NCc1cnc(-c2ccc(Cl)cc2)c(-c2ccc(Cl)cc2)c1` [Compound of Example 82, N-(amino(((5,6-bis(4-chlorophenyl)pyridin-3-yl)methyl)amino)methylene)picolinamide], with 744 nM. Regarding `COc1ccc(-c2cc(CN/C(N)=N/S(=O)(=O)c3ccccc3)cnc2-c2ccc(C)cc2)cc1` [Compound of Example 24, N-(amino(((5-(4-methoxyphenyl)-6-(4-methylphenyl)pyridin-3-yl)methyl)amino)methylene)benzenesulfoamide], the IC50 is 140 nM. For the compound `N/C(=N\S(=O)(=O)c1ccccc1F)NCc1cnc(-c2ccc(Cl)cc2)c(-c2ccc(Cl)cc2)c1` [Compound of Example 26, N-(amino(((5,6-bis(4-chlorophenyl)pyridin-3-yl)methyl)amino)methylene)-2-fluorobenzenesulfonamide], the IC50 is 315 nM. For `N#Cc1ccc(-c2ncc(CN/C(N)=N/S(=O)(=O)c3ccccc3)cc2-c2ccc(Cl)cc2)cc1` [Compound of Example 7, N-(amino(((5-(4-chlorophenyl)-6-(4-cyanophenyl)pyridin-3-yl)methyl)amino)methylene)benzenesulfonamide], the IC50 was 192 nM. Consider `N/C(=N\C(=O)C1CC1)NCc1cnc(-c2ccc(Cl)cc2)c(-c2ccc(Cl)cc2)c1` [Compound of Example 71, N-(amino(((5,6-bis(4-chlorophenyl)pyridin-3-yl)methyl)amino)methylene)cyclopropanecarboxamide], for which the half-maximal inhibitory concentration (IC50) turned out to be 565 nM. As for `N/C(=N\C(=O)c1cccs1)NCc1cnc(-c2ccc(Cl)cc2)c(-c2ccc(Cl)cc2)c1` [Compound of Example 35, N-(amino(((5,6-bis(4-chlorophenyl)pyridin-3-yl)methyl)amino)methylene)thiophene-2-carboxamide Hydrochloride], the 50% inhibitory concentration (IC50) worked out at 314 nM.
